From patent US20090099029A1, “Methods and substrates for conducting assays” (Invitrogen Corporation, priority 2005, published 2009)
Like-named read-outs stand apart in the source and are kept apart here.

Columns and labels:
Assay in all cases: Further analysis of a plurality of inhibitors and a plurality of kinases (Table 5 inhibition results)
Format in all cases: biochemical
Design in all cases: scale not given here
kinases of Table 5 [1] = target: kinases of Table 5 (Homo sapiens, UniProt Q13557)
Text: (§1) The wash solution is then discarded.

kinases of Table 5 [2] = target: kinases of Table 5 (Homo sapiens, UniProt Q9Y6R4); conditions: kinase MAP3K4 (Part I, plate E7, Domain 1); inhibitor 100 uM
Text: as §1

kinases of Table 5 [3] = target: T1, kinases of Table 5 (Homo sapiens, UniProt O14965); conditions: kinase STK6 (Part I, plate C6, Domain 1)
T1 sequence (O14965 1-403): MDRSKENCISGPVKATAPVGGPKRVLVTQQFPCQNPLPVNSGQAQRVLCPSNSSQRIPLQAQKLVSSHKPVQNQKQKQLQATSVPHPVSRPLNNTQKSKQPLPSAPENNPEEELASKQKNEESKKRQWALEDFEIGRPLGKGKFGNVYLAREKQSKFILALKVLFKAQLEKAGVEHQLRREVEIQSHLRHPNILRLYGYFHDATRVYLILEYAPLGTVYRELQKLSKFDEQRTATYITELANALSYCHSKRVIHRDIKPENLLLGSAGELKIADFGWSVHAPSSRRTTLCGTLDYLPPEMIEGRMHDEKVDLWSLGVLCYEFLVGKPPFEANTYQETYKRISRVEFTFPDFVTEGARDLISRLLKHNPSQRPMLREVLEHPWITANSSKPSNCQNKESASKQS
Text: as §1

kinases of Table 5 [4] = target: T2, kinases of Table 5 (Homo sapiens, UniProt Q9Y616); conditions: kinase IRAK3 (Part I, plate C9, Domain 1); inhibitor 100 uM
T2 sequence (Q9Y616 1-596): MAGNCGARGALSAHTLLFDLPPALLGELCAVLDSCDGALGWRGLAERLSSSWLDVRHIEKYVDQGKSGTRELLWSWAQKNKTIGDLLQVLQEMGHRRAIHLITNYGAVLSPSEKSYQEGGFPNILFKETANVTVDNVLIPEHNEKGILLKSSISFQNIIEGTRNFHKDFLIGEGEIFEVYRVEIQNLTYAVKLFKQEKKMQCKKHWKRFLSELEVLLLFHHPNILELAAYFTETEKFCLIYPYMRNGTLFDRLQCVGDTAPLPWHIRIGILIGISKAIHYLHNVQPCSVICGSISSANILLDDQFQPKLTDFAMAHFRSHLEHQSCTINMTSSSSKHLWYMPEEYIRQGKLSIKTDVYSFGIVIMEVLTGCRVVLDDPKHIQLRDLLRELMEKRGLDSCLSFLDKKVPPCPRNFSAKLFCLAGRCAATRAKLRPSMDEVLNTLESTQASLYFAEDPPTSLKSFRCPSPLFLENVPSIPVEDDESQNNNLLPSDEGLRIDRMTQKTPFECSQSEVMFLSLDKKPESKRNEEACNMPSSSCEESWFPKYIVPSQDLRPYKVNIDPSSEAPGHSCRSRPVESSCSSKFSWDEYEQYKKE
Text: as §1

kinases of Table 5 [5] = target: kinases of Table 5 (Homo sapiens, UniProt P11362); conditions: inhibitor 100 uM; for Inhibition level: kinase FGFR1; for Inhibition Results (Level): kinase FGFR1 (Part II, plate D12, Domain 1)
Text: as §1

kinases of Table 5 [6] = target: kinases of Table 5 (Homo sapiens, UniProt Q86UE8); conditions: kinase TLK2 (Part I, plate C8, Domain 1)
Text: as §1

kinases of Table 5 [7] = target: kinases of Table 5 (Homo sapiens, UniProt Q14289); conditions: kinase PTK2B (Part I, plate G5, Domain 1)
Text: as §1

kinases of Table 5 [8] = target: kinases of Table 5 (Homo sapiens, UniProt Q9UIK4); conditions: for Inhibition level: kinase DAPK2; for Inhibition Results (Level): kinase DAPK2 (Part II, plate H3, Domain 1)
Text: as §1

kinases of Table 5 [9] = target: kinases of Table 5 (Homo sapiens, UniProt Q05655); conditions: for Inhibition level: kinase PRKCD; for Inhibition Results (Level): kinase PRKCD (Part II, plate B2, Domain 0)
Text: as §1

kinases of Table 5 [10] = target: T3, kinases of Table 5 (Homo sapiens, UniProt Q08881); conditions: kinase ITK (Part I, plate E4, Domain 0); inhibitor 100 uM
T3 sequence (Q08881 1-620): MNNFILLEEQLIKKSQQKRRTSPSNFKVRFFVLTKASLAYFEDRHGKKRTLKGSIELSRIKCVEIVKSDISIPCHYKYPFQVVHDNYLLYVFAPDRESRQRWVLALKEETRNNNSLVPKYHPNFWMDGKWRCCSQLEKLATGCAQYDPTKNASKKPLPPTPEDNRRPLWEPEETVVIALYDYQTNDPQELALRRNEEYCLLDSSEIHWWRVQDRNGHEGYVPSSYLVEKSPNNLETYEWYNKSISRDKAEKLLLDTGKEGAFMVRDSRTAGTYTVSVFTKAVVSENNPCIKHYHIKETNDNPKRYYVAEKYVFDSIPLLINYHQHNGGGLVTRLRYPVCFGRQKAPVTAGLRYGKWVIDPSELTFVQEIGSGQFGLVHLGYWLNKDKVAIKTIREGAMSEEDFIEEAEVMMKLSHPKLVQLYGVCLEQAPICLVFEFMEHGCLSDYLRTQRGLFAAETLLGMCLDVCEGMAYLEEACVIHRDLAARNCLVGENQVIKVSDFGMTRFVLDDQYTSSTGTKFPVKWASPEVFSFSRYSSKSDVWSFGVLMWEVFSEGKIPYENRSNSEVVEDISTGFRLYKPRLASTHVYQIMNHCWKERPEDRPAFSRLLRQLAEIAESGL
Text: as §1

[11] = kinase CAMK2D, inhibitor 100 uM
[12] = kinase CAMK2D, concentration not given

Chain of kinases of Table 5 (Homo sapiens, UniProt Q14289) (Q14289 whole entry): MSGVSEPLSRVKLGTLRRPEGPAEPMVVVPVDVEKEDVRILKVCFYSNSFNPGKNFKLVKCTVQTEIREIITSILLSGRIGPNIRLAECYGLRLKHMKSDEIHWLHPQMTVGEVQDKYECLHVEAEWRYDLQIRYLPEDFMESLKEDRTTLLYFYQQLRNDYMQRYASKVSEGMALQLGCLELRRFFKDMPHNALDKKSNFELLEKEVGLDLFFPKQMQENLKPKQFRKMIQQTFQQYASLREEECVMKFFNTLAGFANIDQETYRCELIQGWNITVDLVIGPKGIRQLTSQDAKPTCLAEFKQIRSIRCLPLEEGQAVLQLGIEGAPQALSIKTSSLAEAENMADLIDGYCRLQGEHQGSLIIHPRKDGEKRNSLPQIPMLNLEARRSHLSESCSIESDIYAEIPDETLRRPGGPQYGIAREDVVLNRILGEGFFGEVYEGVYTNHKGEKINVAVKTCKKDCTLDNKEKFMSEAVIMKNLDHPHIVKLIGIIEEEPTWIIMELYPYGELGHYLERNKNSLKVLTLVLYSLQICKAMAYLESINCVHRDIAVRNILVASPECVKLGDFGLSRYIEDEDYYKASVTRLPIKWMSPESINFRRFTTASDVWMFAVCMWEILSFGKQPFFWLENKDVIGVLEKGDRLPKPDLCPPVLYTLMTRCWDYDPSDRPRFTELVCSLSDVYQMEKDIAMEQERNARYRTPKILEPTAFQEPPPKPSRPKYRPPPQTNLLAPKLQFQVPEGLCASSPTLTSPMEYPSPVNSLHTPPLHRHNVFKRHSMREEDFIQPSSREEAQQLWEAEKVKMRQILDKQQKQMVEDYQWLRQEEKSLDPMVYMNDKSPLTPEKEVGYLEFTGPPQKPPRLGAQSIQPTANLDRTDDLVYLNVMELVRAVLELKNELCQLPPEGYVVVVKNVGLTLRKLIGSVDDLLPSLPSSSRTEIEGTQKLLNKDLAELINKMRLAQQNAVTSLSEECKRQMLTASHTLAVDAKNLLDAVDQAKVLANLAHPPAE
Chain of kinases of Table 5 (Homo sapiens, UniProt Q9UIK4) (Q9UIK4 whole entry): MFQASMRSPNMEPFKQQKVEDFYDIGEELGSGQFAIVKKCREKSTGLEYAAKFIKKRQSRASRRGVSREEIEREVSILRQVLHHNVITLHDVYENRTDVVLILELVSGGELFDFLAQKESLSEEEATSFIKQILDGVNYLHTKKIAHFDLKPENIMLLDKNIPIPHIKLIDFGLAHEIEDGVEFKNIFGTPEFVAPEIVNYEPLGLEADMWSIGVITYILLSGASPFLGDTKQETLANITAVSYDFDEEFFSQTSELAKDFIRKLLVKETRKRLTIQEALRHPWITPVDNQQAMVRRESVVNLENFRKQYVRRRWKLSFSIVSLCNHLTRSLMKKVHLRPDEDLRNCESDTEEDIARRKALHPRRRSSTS
Chain of kinases of Table 5 (Homo sapiens, UniProt Q86UE8) (Q86UE8 whole entry): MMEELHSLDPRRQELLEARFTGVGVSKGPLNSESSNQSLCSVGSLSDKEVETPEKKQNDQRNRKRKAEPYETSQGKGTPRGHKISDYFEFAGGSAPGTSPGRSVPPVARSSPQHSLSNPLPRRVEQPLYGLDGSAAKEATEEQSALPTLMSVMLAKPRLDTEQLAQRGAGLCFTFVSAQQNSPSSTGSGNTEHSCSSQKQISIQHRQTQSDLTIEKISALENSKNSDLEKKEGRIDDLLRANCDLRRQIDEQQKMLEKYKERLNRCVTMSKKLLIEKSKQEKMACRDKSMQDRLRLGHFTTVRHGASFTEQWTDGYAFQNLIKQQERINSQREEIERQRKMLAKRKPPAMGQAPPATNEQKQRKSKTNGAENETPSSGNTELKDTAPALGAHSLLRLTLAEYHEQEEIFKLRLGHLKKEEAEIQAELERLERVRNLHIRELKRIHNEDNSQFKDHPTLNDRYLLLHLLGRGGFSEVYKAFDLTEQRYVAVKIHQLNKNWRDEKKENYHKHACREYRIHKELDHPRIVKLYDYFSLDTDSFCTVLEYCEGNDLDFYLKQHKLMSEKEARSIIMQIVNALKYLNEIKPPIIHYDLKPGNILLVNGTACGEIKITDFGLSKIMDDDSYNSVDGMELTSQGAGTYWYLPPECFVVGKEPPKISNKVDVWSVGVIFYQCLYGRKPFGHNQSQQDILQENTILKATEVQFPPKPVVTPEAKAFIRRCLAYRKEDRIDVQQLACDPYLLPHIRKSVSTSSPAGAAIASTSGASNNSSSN
Chain of kinases of Table 5 (Homo sapiens, UniProt Q9Y6R4) (Q9Y6R4 whole entry): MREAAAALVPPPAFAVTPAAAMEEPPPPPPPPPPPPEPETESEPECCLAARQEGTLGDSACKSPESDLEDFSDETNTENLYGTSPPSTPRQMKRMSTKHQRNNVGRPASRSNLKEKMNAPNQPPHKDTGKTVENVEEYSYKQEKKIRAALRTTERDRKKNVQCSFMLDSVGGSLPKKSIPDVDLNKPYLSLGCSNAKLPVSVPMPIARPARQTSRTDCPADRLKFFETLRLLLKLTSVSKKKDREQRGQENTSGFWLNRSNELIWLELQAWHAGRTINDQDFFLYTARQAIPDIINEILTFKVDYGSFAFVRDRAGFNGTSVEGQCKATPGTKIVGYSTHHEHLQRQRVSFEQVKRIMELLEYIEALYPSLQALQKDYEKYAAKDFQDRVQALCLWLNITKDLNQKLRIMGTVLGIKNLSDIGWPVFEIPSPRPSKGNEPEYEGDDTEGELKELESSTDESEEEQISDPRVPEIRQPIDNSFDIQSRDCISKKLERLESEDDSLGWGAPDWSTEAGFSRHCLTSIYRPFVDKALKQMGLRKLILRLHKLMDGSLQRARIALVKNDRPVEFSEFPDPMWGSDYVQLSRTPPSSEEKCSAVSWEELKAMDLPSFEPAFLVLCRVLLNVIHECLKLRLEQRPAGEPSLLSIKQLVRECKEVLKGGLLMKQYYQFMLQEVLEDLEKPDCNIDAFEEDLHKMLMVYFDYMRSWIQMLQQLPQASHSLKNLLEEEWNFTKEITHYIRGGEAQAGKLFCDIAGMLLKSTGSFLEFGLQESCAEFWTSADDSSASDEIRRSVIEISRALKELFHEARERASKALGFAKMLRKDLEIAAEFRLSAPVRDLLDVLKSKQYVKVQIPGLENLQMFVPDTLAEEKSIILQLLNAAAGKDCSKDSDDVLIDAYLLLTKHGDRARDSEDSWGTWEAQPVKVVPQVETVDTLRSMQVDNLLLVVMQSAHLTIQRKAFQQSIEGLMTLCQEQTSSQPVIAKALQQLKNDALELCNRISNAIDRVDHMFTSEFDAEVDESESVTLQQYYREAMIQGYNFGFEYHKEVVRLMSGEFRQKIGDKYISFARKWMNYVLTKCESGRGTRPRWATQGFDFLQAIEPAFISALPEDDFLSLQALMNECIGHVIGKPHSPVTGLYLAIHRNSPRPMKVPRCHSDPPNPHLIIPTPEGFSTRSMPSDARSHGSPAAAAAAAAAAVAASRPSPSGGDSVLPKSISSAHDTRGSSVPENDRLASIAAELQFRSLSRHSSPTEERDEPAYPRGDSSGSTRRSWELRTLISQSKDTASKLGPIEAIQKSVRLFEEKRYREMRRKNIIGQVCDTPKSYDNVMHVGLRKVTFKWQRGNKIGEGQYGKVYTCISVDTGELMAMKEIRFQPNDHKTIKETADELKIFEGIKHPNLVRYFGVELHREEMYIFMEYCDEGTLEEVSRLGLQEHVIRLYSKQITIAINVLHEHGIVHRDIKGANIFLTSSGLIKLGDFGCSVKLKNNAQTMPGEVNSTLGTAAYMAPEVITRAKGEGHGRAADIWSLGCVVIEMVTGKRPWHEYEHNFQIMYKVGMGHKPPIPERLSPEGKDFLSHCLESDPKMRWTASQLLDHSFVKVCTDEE
Chain of kinases of Table 5 (Homo sapiens, UniProt Q05655) (Q05655 whole entry): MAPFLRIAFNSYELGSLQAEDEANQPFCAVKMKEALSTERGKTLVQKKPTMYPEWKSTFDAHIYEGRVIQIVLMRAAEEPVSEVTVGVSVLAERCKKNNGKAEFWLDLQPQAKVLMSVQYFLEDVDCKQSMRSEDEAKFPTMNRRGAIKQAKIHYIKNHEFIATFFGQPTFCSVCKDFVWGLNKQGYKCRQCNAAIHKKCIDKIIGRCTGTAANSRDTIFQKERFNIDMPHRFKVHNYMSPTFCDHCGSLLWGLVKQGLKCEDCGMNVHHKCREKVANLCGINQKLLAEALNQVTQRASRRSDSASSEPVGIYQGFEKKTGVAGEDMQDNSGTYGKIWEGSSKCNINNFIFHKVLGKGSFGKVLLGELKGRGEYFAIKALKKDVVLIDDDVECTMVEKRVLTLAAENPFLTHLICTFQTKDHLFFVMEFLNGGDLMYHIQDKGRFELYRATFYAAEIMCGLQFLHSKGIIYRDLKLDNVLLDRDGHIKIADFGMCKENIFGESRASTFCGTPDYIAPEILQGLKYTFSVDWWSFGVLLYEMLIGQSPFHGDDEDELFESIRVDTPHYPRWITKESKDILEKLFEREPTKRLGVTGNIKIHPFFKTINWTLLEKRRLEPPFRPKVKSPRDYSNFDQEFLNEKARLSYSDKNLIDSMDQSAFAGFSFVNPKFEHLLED
Chain of kinases of Table 5 (Homo sapiens, UniProt Q13557) (Q13557 whole entry): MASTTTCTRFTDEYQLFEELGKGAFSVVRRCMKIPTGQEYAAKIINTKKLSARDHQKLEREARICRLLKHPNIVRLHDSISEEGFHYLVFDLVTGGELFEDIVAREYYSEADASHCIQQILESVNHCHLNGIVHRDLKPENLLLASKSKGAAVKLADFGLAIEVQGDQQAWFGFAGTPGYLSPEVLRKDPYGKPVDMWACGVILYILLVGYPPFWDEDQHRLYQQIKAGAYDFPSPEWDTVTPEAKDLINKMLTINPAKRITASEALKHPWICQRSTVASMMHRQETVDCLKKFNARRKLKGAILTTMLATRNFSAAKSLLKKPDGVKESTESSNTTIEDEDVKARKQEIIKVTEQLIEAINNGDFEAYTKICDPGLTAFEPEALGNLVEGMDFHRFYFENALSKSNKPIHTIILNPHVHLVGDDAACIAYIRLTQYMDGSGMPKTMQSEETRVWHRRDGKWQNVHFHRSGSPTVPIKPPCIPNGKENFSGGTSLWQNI

| Compound | Inhibition level (kinases of Table 5 [1]; [11]) | Inhibition Results (Level) (kinases of Table 5 [2]) | Inhibition Results (Level) (kinases of Table 5 [3]; inhibitor 100 uM) | Inhibition Results (Level) (kinases of Table 5 [4]) | Inhibition level (kinases of Table 5 [5]) | Inhibition Results (Level) (kinases of Table 5 [6]; inhibitor 100 uM) | Inhibition Results (Level) (kinases of Table 5 [7]; inhibitor 100 uM) | Inhibition level (kinases of Table 5 [8]; inhibitor 100 uM) | Inhibition level (kinases of Table 5 [9]; inhibitor 100 uM) | Inhibition Results (Level) (kinases of Table 5 [10]) | Inhibition level (kinases of Table 5 [8]; concentration not given) | Inhibition Results (Level) (kinases of Table 5 [8]; inhibitor 100 uM) | Inhibition Results (Level) (kinases of Table 5 [9]; inhibitor 100 uM) | further results |
| --- | --- | --- | --- | --- | --- | --- | --- | --- | --- | --- | --- | --- | --- | --- |
| N#C/C(=C/c1ccc(O)c(O)c1)C(=O)NCc1ccccc1 [AG 490] | 2 | 2 | 2 | 0 | 0 | 2 | 2 | 2 | 0 | 1 | – | – | – | – |
| COc1cc2ncnc(Nc3cccc(Cl)c3)c2cc1OC [AG 1478] | 2 | 1 | 0 | 2 | 1 | 2 | 2 | 0 | 0 | 1 | – | – | – | – |
| O=c1c(-c2ccc(O)cc2)coc2cc(O)cc(O)c12 [Genistein] | 2 | 1 | 2 | 2 | 0 | 2 | 2 | 2 | 0 | 2 | 0 | – | – | Inhibition level (kinases of Table 5 [1]; [12]): 0; Inhibition Results (Level) (kinases of Table 5 [3]; inhibitor <3.7 mM): 0; Inhibition Results (Level) (kinases of Table 5 [6]; inhibitor <3.7 mM): 0; Inhibition level (kinases of Table 5 [9]; concentration not given): 0 |
| O=S(=O)(NCCNC/C=C/c1ccc(Br)cc1)c1cccc2cnccc12 [H-89] | 0 | 1 | 0 | 0 | – | 2 | 1 | – | – | 1 | – | 2 | 1 | Inhibition Results (Level) (kinases of Table 5 [5]): 1 |
| CC(C)(C)n1nc(-c2ccc(Cl)cc2)c2c(N)ncnc21 [PP2] | 2 | 2 | 2 | 2 | 2 | 2 | 2 | 2 | 0 | 2 | – | – | – | – |
| O=c1c(O)c(-c2ccc(O)c(O)c2)oc2cc(O)cc(O)c12 [Quercetin] | – | 0 | – | 0 | – | 0 | 1 | – | – | 0 | – | 0 | 0 | – |
| Cn1cc(C2=C(c3cn(CCCSC(=N)N)c4ccccc34)C(=O)NC2=O)c2ccccc21 [Ro-31-8220] | 0 | 2 | 2 | 2 | 2 | 1 | 2 | 2 | 0 | 2 | 2 | – | – | Inhibition level (kinases of Table 5 [1]; [12]): 2; Inhibition Results (Level) (kinases of Table 5 [3]; inhibitor 90 uM): 0; Inhibition Results (Level) (kinases of Table 5 [6]; inhibitor 90 uM): 2; Inhibition Results (Level) (kinases of Table 5 [7]; inhibitor 90 uM): 0; Inhibition level (kinases of Table 5 [9]; concentration not given): 2 |
| CC(=O)c1c(O)c(C)c(O)c(Cc2c(O)c3c(c(C(=O)/C=C/c4ccccc4)c2O)OC(C)(C)C=C3)c1O [Rottlerin (Mallotoxin)] | 2 | 1 | 2 | 2 | – | 2 | 2 | – | – | 1 | – | 1 | 0 | Inhibition Results (Level) (kinases of Table 5 [5]): 1 |
| CN[C@@H]1C[C@H]2O[C@@](C)([C@@H]1OC)n1c3ccccc3c3c4c(c5c6ccccc6n2c5c31)C(=O)NC4 [Staurosporine] | – | – | – | – | – | – | – | – | – | – | 2 | – | – | Inhibition level (kinases of Table 5 [1]): 2; Inhibition Results (Level) (kinases of Table 5 [3]; inhibitor 21.5 uM): 0; Inhibition Results (Level) (kinases of Table 5 [6]; inhibitor 21.5 uM): 2; Inhibition Results (Level) (kinases of Table 5 [7]; inhibitor 21.5 uM): 0 |
